In the test the target is T1, AurB (Homo sapiens, UniProt Q96GD4).
T1 construct: purchased Carna Biosciences
The test can be described thus: LabChip (Caliper) kinase assay, AurB. Format: biochemical. The note with it: ATP at Km, read-out: CI50 (the source's name). Here is the method:
The analysis of kinase activity described here was performed using LabChip (Caliper Life Sciences), specifically the Caliper LC3000 and the EZ Reader II instruments.
The kinase assay used measures the conversion of a fluorescent peptide (substrate) to a phosphorylated product. The reaction mixture, in a microplate well, is introduced by a capillary in a chip where the non-phosphorylated substrate and the phosphorylated product are separated by […]. The intensity of the fluorescent signal over time is related to the reaction progress. The phosphorylated product migrates quicker than the non-phosphorylated substrate and the signals of the two forms of the peptide appear as differentiated peaks. The Caliper determines the peak height and calculates the ratio of product to the peak sum (P/(P+S)). This value is used to compare wells with compounds and wells with controls and thus determine the % of inhibition for the given product. […]
The compounds were dissolved in 100% DMSO and were diluted at 25 times the final concentration desired for the assay. […] The microplates were read by the LabChip 3000 using a 12-channel LabChip. […]

T1 sequence (Q96GD4 whole entry): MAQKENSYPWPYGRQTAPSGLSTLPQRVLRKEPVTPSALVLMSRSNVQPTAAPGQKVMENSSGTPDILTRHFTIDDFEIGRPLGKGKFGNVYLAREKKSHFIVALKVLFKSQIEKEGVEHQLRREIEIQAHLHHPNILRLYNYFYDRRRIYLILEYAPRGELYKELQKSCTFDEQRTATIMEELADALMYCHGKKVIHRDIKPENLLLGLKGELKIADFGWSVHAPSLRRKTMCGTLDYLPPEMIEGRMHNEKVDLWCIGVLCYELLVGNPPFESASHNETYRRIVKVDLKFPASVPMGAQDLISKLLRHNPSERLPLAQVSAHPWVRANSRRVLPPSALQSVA
T1 sequence (Q9NQS7 803-918 partner limits assumed): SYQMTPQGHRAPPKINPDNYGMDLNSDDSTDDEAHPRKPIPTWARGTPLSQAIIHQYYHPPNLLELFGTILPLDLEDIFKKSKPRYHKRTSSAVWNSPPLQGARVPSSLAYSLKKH

On to `C[C@]12O[C@H](C[C@H](O)[C@H]1O)n1c3ccccc3c3c4c(c5c6ccccc6n2c5c31)CNC4=O` [formula (XVII), N^12-5′(S)-N^13-1′-(R)-L-olivosyl-k252c], for which the IC50 came to 6.8 nM.
As to `C[C@]12O[C@H](C[C@@H](O)[C@H]1O)n1c3ccccc3c3c4c(c5c6ccccc6n2c5c31)C(=O)NC4=O` [formula (IX), N^12-5′(S)-N^13-1′-(R)-L-digitoxosylarcyriaflavin], the IC50 was 4.5 nM.
